Results from US20220127297A1, “Novel Antibacterial 3"-Derivatives Of 4,6-Disubstituted 2,5-Dideoxystreptamine Aminoglycoside Antibiotics” (AGILeBiotics B.V., priority 2018, published 2022).
Read-outs that look alike come from different tables or passages of the source.

Test system: Klebsiella pneumoniae ATCC BAA-1705
Conditions: for Avg. Log CFU/g thigh: BID; for decrease in CFU number in thighs in comparison to the vehicle control group: doses of 16 and 64 mg/kg (SC, BID)
Method: 4.2 Murine Neutropenic Thigh Model of Infection (Kiebsiella Pneumoniae ATCC BAA-1705)
All animal-related research is conducted in accordance with 2010/63/EU and National legislation regulating the use of laboratory animals in scientific research and for other purposes (Official Gazette 55/13).
In vivo studies and CFU determination were performed by Fidelta (Zagreb, Croatia) and all mice were obtained from Charles River Laboratories (Italy).
Two compounds, i.e. ABX5006 and ABX5020, and a comparator antibiotic (amikacin sulfate; Cat. No. 01693, Chem-Impex) were tested in a mouse model of thigh infection with Klebsiella pneumoniae ATCC BAA-1705.
Neutropenic thigh model: Pathogen-free male CD-1 mice (6 mice per dosing group) weighing 36±4 g were used. Prior to infection, neutropenia was induced in mice by two cyclophosphamide doses applied intraperitoneally four days (150 mg/kg body weight) and one day prior to infection (100 mg/kg body weight). […] For subcutaneous treatment, pre-weighed test item powder (ABX5006) was dissolved in PBS and the pH was adjusted (to reach a near-neutral pH), to reach a final concentration of 6.4 mg/mL for a dose of 64 mg/kg (group 3) or 1.6 mg/mL for a dose of 16 mg/kg (group 2). For subcutaneous treatment, pre-weighed test item powder (ABX5020) was dissolved in PBS and the pH was adjusted (to reach a near-neutral pH), to reach a final concentration of 6.4 mg/mL for a dose of 64 mg/kg (group 7) or 1.6 mg/mL for a dose of 16 mg/kg (group 6). For subcutaneous treatment, pre-weighed reference compound (amikacin sulfate) was dissolved in PBS and the pH was adjusted (to reach a near-neutral pH), to reach a final concentration of 6.4 mg/mL for a dose of 64 mg/kg (group 5) or 1.6 mg/mL for a dose of 16 mg/kg (group 4). Each mouse was infected with Klebsiella pneumoniae ATCC BAA-1705 (1.18×10^6/thigh), under light ketamine/xylazine anesthesia, by intramuscular administration of 0.10 mL of a suspension containing bacteria into both thighs. Animals were dosed subcutaneously twice with 8 h interval. Treatment was started 1 h following infection either with Vehicle—PBS (group 1) or amikacin sulfate (groups 4-5) or test compounds (groups 2-3 and 6-7) as described above. All Mice were overdosed with ketamine/xylazine 24 hours post infection. Thighs were aseptically removed and separately placed into sterile Precellys test tubes containing 2 mL of sterile PBS. Precellys test tubes were weighed and the weight was recorded prior and post-sampling. Each thigh was homogenized in sterile PBS using Ultraturax, IKA. After homogenizing, a serial dilution of the homogenates was used for CFU determination. A CFU count of each thigh acted as a single result.
Supplies/Chemicals. BBL™ Mueller Hinton Broth (REF 275730, Becton Dickinson); BBL™ Mueller Hinton Agar 2 (REF 211438, Becton Dickinson); PBS (Cat. No. P4417, Sigma); Saline (Serial No. 1422115, HZ™); Xylazine 2% (Alfasan, International B.V.); Narkamon (100 mg/mL ketamine chloride, Bioveta); Cyclophosphamide monohydrate (No. C2236, TCI); Sterile, single use needles (BD MICROLANCE Kanuele, 27 G, REF 300220, Becton Dickinson); 5 mL syringes (BD Plastipak, REF 300013, Becton Dickinson).
Anesthesia. 1 mL of Narkamon, 0.2 mL of Xylazine and 9 mL of saline; Dose volume: 10 mL/kg body weight.
Inoculum preparation for intramuscular infection. The strain was streaked out onto MH agar. On the following day Mueller-Hinton broth was inoculated with several colonies of Klebsiella pneumoniae and incubated at 37° C. in an orbital shaker until log phase of growth was reached (OD600=0.6). Log bacteria was centrifuged and suspended in equal volume of sterile PBS and subsequently diluted to obtain a bacterial suspension of adequate inoculum size.

Structure (SMILES) | Avg. Log CFU/g thigh (dose 16 mg/kg, SC) [Log CFU/g] | Avg. Log CFU/g thigh (dose 64 mg/kg, SC) [Log CFU/g] | decrease in CFU number in thighs in comparison to the vehicle control group | animals euthanized prior to second dose due to weak clinical condition (infected neutropenic mice, SC)
N=C(NCCN)NC1C(O)[C@@H](CO)OC(OC2C(F)[C@H](O[C@H]3OC(CN)[C@@H](O)CC3N)C(N)C[C@H]2NC(=O)[C@@H](O)CCN)[C@@H]1O (stereo partly shown) [ABX5020, Tobra-AHB-F-Gua-2-amino-ethyl] | 6.18 | 5.29 | 2.7-3.6 log 10 | Two animals
N=C(N)NC1C(O)[C@@H](CO)OC(OC2C(F)[C@H](O[C@H]3OC(CN)[C@@H](O)CC3N)C(N)C[C@H]2NC(=O)[C@@H](O)CCN)[C@@H]1O (stereo partly shown) [ABX5006, Tobra-AHB-F-Gua] | 6.08 | 5.69 | 2.8-3.2 log 10 | 
NCC[C@H](O)C(=O)N[C@@H]1C[C@H](N)[C@@H](O[C@H]2O[C@H](CN)[C@@H](O)[C@H](O)[C@H]2O)[C@H](O)[C@H]1O[C@H]1O[C@H](CO)[C@@H](O)[C@H](N)[C@H]1O [Amikacin, amikacin, reference compound] | 8.19 | 7.24 | did not significantly decrease CFU counts in thighs | 
